Assay results published in PubChem BioAssay (NCI).
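Assay format: 96-well plates, 48-hour exposure. At the GI50, growth is halved. At the TGI there is no net growth.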

Key:
Test in all cases: NCI tumour cell line growth inhibition, 48 h
[1] = test system: 786-0 renal
[2] = test system: A498 renal
[3] = test system: A549 NSCLC
[4] = test system: ACHN renal
[5] = test system: CAKI-1 renal
[6] = test system: COLO 205 colon
[7] = test system: DU-145 prostate
[8] = test system: EKVX NSCLC
[9] = test system: HCT-116 colon
[10] = test system: HCT-15 colon
[11] = test system: HL-60(TB) leukemia
[12] = test system: HOP-92 NSCLC
[13] = test system: HS 578T breast
[14] = test system: HT29 colon
[15] = test system: IGROV1 ovarian
[16] = test system: K-562 leukemia
[17] = test system: KM12 colon
[18] = test system: LOX IMVI melanoma
[19] = test system: M14 melanoma
[20] = test system: MALME-3M melanoma
[21] = test system: MCF7 breast
[22] = test system: MDA-MB-231 breast
[23] = test system: MDA-MB-435
[24] = test system: MDA-N
[25] = test system: NCI-H226 lung
[26] = test system: NCI-H23 lung
[27] = test system: NCI-H522 lung
[28] = test system: NCI/ADR-RES ovarian
[29] = test system: OVCAR-5 ovarian
[30] = test system: OVCAR-8 ovarian
[31] = test system: PC-3 prostate
[32] = test system: RPMI-8226 leukemia
[33] = test system: RXF 393 renal
[34] = test system: SF-268 CNS
[35] = test system: SF-295 CNS
[36] = test system: SF-539 CNS
[37] = test system: SK-MEL-2 melanoma
[38] = test system: SK-MEL-28 melanoma
[39] = test system: SK-MEL-5 melanoma
[40] = test system: SK-OV-3 ovarian
[41] = test system: SN12C renal
[42] = test system: SNB-19 CNS
[43] = test system: SNB-75 CNS
[44] = test system: SW-620 colon
[45] = test system: T-47D breast
[46] = test system: TK-10 renal
[47] = test system: U251 CNS
[48] = test system: UACC-257 melanoma
[49] = test system: UACC-62 melanoma
[50] = test system: UO-31 renal
[51] = test system: BT-549 breast
[52] = test system: CCRF-CEM leukemia
[53] = test system: HCC-2998 colon
[54] = test system: HOP-62 NSCLC
[55] = test system: MOLT-4 leukemia
[56] = test system: NCI-H460 lung
[57] = test system: OVCAR-3 ovarian
[58] = test system: OVCAR-4 ovarian
[59] = test system: SR leukemia

CCOC(=O)C1C(C)C2(C#N)C(=N)OC1(C)C2(C#N)C#N (configuration not stated)
TGI [1]: > 100 µM
TGI [2]: > 100 µM
TGI [3]: > 100 µM
TGI [4]: > 100 µM
TGI [5]: > 100 µM
TGI [6]: > 100 µM
TGI [7]: > 100 µM
TGI [8]: > 100 µM
TGI [9]: > 100 µM
TGI [10]: > 100 µM
TGI [11]: 60.3 µM
TGI [12]: 97.1 µM
TGI [13]: > 100 µM
TGI [14]: > 100 µM
TGI [15]: > 100 µM
TGI [16]: > 100 µM
TGI [17]: > 100 µM
TGI [18]: 67.1 µM
TGI [19]: > 100 µM
TGI [20]: > 100 µM
TGI [21]: > 100 µM
TGI [22]: > 100 µM
TGI [23]: > 100 µM
TGI [24]: > 100 µM
TGI [25]: > 100 µM
TGI [26]: > 100 µM
TGI [27]: > 100 µM
TGI [28]: > 100 µM
TGI [29]: > 100 µM
TGI [30]: > 100 µM
TGI [31]: > 100 µM
TGI [32]: 43.8 µM
TGI [33]: 92.7 µM
TGI [34]: > 100 µM
TGI [35]: > 100 µM
TGI [36]: > 100 µM
TGI [37]: > 100 µM
TGI [38]: > 100 µM
TGI [39]: 98.5 µM
TGI [40]: > 100 µM
TGI [41]: > 100 µM
TGI [42]: > 100 µM
TGI [43]: > 100 µM
TGI [44]: > 100 µM
TGI [45]: > 100 µM
TGI [46]: > 100 µM
TGI [47]: > 100 µM
TGI [48]: > 100 µM
TGI [49]: > 100 µM
TGI [50]: > 100 µM

COc1cc(/C(=C2/O[C@@H]([C@H]3COC(C)(C)O3)[C@H]3OC(C)(C)O[C@@H]23)c2ccc3ccccc3c2)cc(OC)c1OC
GI50 [1]: 2.3 µM
TGI [1]: 4.47 µM
GI50 [2]: 17.8 µM
TGI [2]: 74.6 µM
GI50 [3]: 3.09 µM
TGI [3]: 9.55 µM
GI50 [4]: 4.4 µM
TGI [4]: > 100 µM
GI50 [51]: 3.22 µM
TGI [51]: 8.1 µM
GI50 [5]: 4.54 µM
TGI [5]: > 100 µM
GI50 [52]: 48.3 µM
TGI [52]: > 100 µM
GI50 [6]: 6.97 µM
TGI [6]: > 100 µM
GI50 [7]: 4.33 µM
TGI [7]: > 100 µM
GI50 [8]: 5.59 µM
TGI [8]: > 100 µM
GI50 [53]: 6.47 µM
TGI [53]: > 100 µM
GI50 [9]: 2.51 µM
TGI [9]: 5.7 µM
GI50 [10]: 76.8 µM
TGI [10]: > 100 µM
GI50 [11]: 74.9 µM
TGI [11]: > 100 µM
GI50 [54]: 9.78 µM
TGI [54]: 31.4 µM
GI50 [12]: 2.67 µM
TGI [12]: 13.3 µM
GI50 [13]: 4.44 µM
TGI [13]: 53.4 µM
GI50 [14]: 3.64 µM
TGI [14]: 16.3 µM
GI50 [15]: 3.3 µM
TGI [15]: 10.9 µM
GI50 [16]: 4.02 µM
TGI [16]: > 100 µM
GI50 [17]: 6 µM
TGI [17]: > 100 µM
GI50 [18]: 3.39 µM
TGI [18]: 19.8 µM
GI50 [19]: 6.7 µM
TGI [19]: 23.8 µM
GI50 [20]: 2.07 µM
TGI [20]: 5.59 µM
GI50 [21]: 3.59 µM
TGI [21]: 14.4 µM
GI50 [22]: 6.28 µM
TGI [22]: 69.7 µM
GI50 [23]: 3.61 µM
TGI [23]: 17.5 µM
GI50 [55]: > 100 µM
TGI [55]: > 100 µM
GI50 [25]: 3.49 µM
TGI [25]: 60 µM
GI50 [26]: 5.43 µM
TGI [26]: > 100 µM
GI50 [56]: 4.1 µM
TGI [56]: > 100 µM
GI50 [27]: 2.27 µM
TGI [27]: 6.54 µM
GI50 [28]: 4.26 µM
TGI [28]: 22.3 µM
GI50 [57]: 2.39 µM
TGI [57]: 5.67 µM
GI50 [58]: 2.82 µM
TGI [58]: 8.02 µM
GI50 [29]: 14 µM
TGI [29]: > 100 µM
GI50 [30]: 3.89 µM
TGI [30]: > 100 µM
GI50 [31]: 5.71 µM
TGI [31]: > 100 µM
GI50 [32]: 33.3 µM
TGI [32]: > 100 µM
GI50 [33]: 2.54 µM
TGI [33]: 5.99 µM
GI50 [34]: 3.13 µM
TGI [34]: 15.9 µM
GI50 [35]: 6.92 µM
TGI [35]: 52.1 µM
GI50 [36]: 14.3 µM
TGI [36]: 79 µM
GI50 [37]: 1.53 µM
TGI [37]: 4.12 µM
GI50 [38]: 2.86 µM
TGI [38]: 9.65 µM
GI50 [39]: 4.07 µM
TGI [39]: 15.4 µM
GI50 [40]: 4.37 µM
TGI [40]: > 100 µM
GI50 [41]: 3.65 µM
TGI [41]: > 100 µM
GI50 [42]: 2.49 µM
TGI [42]: 6.08 µM
GI50 [43]: 2.89 µM
TGI [43]: 7.44 µM
GI50 [59]: > 100 µM
TGI [59]: > 100 µM
GI50 [44]: 4.31 µM
TGI [44]: > 100 µM
GI50 [45]: 3.45 µM
TGI [45]: 40.6 µM
GI50 [46]: 3.2 µM
TGI [46]: 7.2 µM
GI50 [47]: 3.12 µM
TGI [47]: 11.8 µM
GI50 [48]: 4.28 µM
TGI [48]: 67.9 µM
GI50 [49]: 7.13 µM
TGI [49]: > 100 µM
GI50 [50]: 3.47 µM
TGI [50]: > 100 µM

COC(=O)C(C)(C)[C@@H]1OC(=O)N(S(=O)(=O)c2c(C)cc(C)cc2C)[C@H]1C(C)C
TGI [1]: > 100 µM
TGI [3]: > 100 µM
TGI [4]: > 100 µM
TGI [52]: > 100 µM
TGI [6]: > 100 µM
TGI [7]: > 100 µM
TGI [8]: > 100 µM
TGI [53]: > 100 µM
TGI [9]: > 100 µM
TGI [10]: > 100 µM
TGI [11]: 84.5 µM
TGI [54]: > 100 µM
TGI [12]: 98.2 µM
TGI [13]: > 100 µM
TGI [14]: > 100 µM
TGI [15]: > 100 µM
TGI [16]: > 100 µM
TGI [17]: > 100 µM
TGI [18]: > 100 µM
TGI [19]: > 100 µM
TGI [20]: > 100 µM
TGI [21]: > 100 µM
TGI [22]: > 100 µM
TGI [23]: > 100 µM
TGI [24]: > 100 µM
TGI [55]: > 100 µM
TGI [25]: > 100 µM
TGI [26]: > 100 µM
TGI [56]: > 100 µM
TGI [27]: > 100 µM
TGI [28]: > 100 µM
TGI [57]: > 100 µM
TGI [58]: > 100 µM
TGI [29]: > 100 µM
TGI [30]: > 100 µM
TGI [31]: > 100 µM
TGI [32]: > 100 µM
TGI [33]: > 100 µM
TGI [34]: > 100 µM
TGI [35]: > 100 µM
TGI [36]: > 100 µM
TGI [37]: > 100 µM
TGI [38]: > 100 µM
TGI [39]: > 100 µM
TGI [40]: > 100 µM
TGI [41]: > 100 µM
TGI [42]: > 100 µM
TGI [43]: > 100 µM
TGI [59]: > 100 µM
TGI [44]: > 100 µM
TGI [45]: > 100 µM
TGI [46]: > 100 µM
TGI [47]: > 100 µM
TGI [48]: > 100 µM
TGI [49]: > 100 µM
TGI [50]: > 100 µM
